Reference: patent US20240150335A1, “FUSED RING DERIVATIVES CONTAINING 1,4-OXAZEPANE” (MEDSHINE DISCOVERY INC., priority 2021, published 2024)

Experiments:
[1] = target: Recombinant human cathepsin C/DPP1; assay: Inhibition effect test of DPP1 enzyme activity; assay type: biochemical; conditions: recombinant human cathepsin C/DPP1, Gly-Arg-AMC substrate 12.5 μM, 25° C. 60 minutes; read-out: IC50, inhibitory activity on DPP1 enzyme
Procedure: Experimental Example 1: Inhibition Effect Test of DPP1 Enzyme Activity
Recombinant human cathepsin C/DPP1 was purchased from R&D Systems;
Recombinant human cathepsin L (rhCathepsin L) was purchased from R&D Systems;
Gly-Arg-AMC (hydrochloride) was purchased from CAYMAN CHEMICAL COMPANY.
1× activation buffer: 5 mM DTT 0.01% (V/V) Triton X-100 (preparation for current use);
1× assay buffer: 50 mM NaCl 5 mM DTT 0.01% (V/V) Triton X-100 (preparation for current use);
1× activation buffer was used to dilute recombinant human cathepsin C/DPP1 enzyme and recombinant human cathepsin L (rhCathepsin L) enzyme to concentrations of 2 ng/μL and 0.4 ng/μL, respectively; equal volume of two working solutions of enzyme was taken, mixed well and incubated at 25° C. for 60 minutes;
the compounds to be tested were 5-fold diluted with a multi-channel pipette to the 8th concentration, i.e., diluted from 1 mM to 12.8 nM. Then 1× experimental buffer was used to dilute each compound to be tested by gradient into a 4% DMSO working solution. The working solution was added to corresponding wells for 5 μL/well, and duplicate experiment was set. The mixture was centrifuged at 1000 rpm for 1 minute;
5 μL/well of the enzyme mixture after incubation was taken and added to the white microwell plate. At this time, the amount of DPP1 enzyme in each well was 5 ng; 1× experimental buffer in 5 μL/well was added to the blank control well;
Gly-Arg-AMC (hydrochloride) was diluted to 25 μM with 1× assay buffer. The diluted mixture in 10 μL/well was added to a white microwell plate. The substrate concentration was 12.5 μM at this time, and the microplate was centrifuged in a centrifuge at 1000 rpm for 1 minute. […] After centrifugation, the microplate was covered with membrane and incubated at 25° C. for 60 minutes;
after incubation, fluorescence detection was performed using a multi-label analyzer with an excitation wavelength of 360 nm and an emission wavelength of 460 nm.
Using the equation (Sample−Min)/(Max−Min)×100% to convert the raw data into enzyme activity, the IC50 value might be obtained by curve fitting with four parameters (obtained by “log (inhibitor) vs. response—Variable slope” mode in GraphPad Prism).
Max: Contains recombinant human cathepsin C/DPP1, recombinant human cathepsin L (rhCathepsin L), and Gly-Arg-AMC (hydrochloride)
Min: No recombinant human cathepsin C/DPP1 and recombinant human cathepsin L (rhCathepsin L)

DPP1 of U937 cells = DPP1 of U937 cells (Homo sapiens (Human), UniProt P53634); assay: Activity test of inhibiting DPP1 in U937 cells; assay type: cell-based; conditions: Gly-Phe-AFC probe, read-out: IC50, inhibitory activity on DPP1 of U937 cells
Procedure: Experimental Example 2: Activity Test of Inhibiting DPP1 in U937 Cells
Experimental Materials: • 1) Experimental reagents and consumables
The cell plate was placed in a carbon dioxide incubator for 1 day; • (3) after incubation for 1 hour, 100 μM Gly-Phe-AFC probe solution was added thereto, that is, 60 mM Gly-Phe-AFC probe stock solution was diluted with culture medium to 500 μM working solution; the working solution in 10 μL per well was transferred into the cell plate, and the cell plate was incubated in a carbon dioxide incubator for 1 hour;
3) the plate was read, and the data were analyzed: • (1) plate reading: after the cell incubation was completed, the cell plate was taken out, and the plate was read on Victor Nivo.
Using the equation (Sample−Min)/(Max−Min)×100% to convert the raw data into inhibition rate, the IC50 value might be obtained by curve fitting with four parameters (obtained by “log (inhibitor) vs. response—Variable slope” mode in GraphPad Prism).

[2] = Rat tissue (bone marrow) distribution; assay type: in vivo; conditions: SD rats
Procedure: Experimental Example 6: Evaluation of Rat Tissue (Bone Marrow) Distribution of the Compound of the Present Disclosure
Experimental purpose: To test the distribution of the compound in the bone marrow and plasma of SD rats
Experimental materials: SD rats (male, 200 to 300 g, 6 to 10 weeks old, Beijing Vital River)
The content of the compound in the bone marrow and plasma of rats after oral administration was tested according to the standard protocol. In the experiment, the candidate compound was formulated into a clear solution. The vehicle was 5:95 DMSO and 10% hydroxypropyl β-cyclodextrin aqueous solution. A dose of 5 mg/kg was given to rats as a single oral administration. The whole blood samples and bone marrow samples were collected at 0.25, 0.5, 1, 2, 4, 6, and 24 hours, respectively. The whole blood samples were collected in commercial EDTA2K anticoagulant tubes. The tubes were centrifuged at 6000 g for 3 minutes. The supernatant was separated to obtain plasma samples. The acetonitrile solution containing internal standard was added to precipitate protein. The mixture was centrifuged. The supernatant was take out. An equal volume of water was added. After mixing well, plasma concentration was quantitatively analyzed by LC-MS/MS analysis method, and the area under the drug-time curve was calculated. The left femur of the rat was taken, and the muscle was removed. One end was cut off, placed in a centrifuge tube with the open end downwards. The tubes were centrifuged at 8000 rpm for 1 minute. The precipitate was bone marrow. The bone marrow was mixed with 50% methanol-water, grinded into a homogenate. The homogenate was added with an acetonitrile solution containing an internal standard to precipitate protein. The mixture was centrifuged to take the supernatant, added with an equal volume of water. After mixing well, the drug concentration in bone marrow was quantitatively analyzed by LC-MS/MS analysis method, and the area under the drug-time curve was calculated.
The calculation formula of bone marrow/plasma distribution coefficient is: Bone marrow/Plasma Ratio=bone marrow AUC0-last/plasma AUC0-last.

[3] = bone marrow, 5 mg/kg single oral administration

Chain of DPP1 of U937 cells (P53634 25-134): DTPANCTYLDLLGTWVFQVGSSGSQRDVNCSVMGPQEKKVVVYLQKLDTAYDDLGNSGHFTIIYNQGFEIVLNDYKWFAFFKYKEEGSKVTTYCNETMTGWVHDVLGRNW
Chain of DPP1 of U937 cells (P53634 231-394): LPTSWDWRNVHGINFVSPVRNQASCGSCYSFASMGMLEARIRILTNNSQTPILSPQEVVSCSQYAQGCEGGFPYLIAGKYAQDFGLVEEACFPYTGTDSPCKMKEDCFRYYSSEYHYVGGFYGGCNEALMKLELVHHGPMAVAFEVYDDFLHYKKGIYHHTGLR
Chain of DPP1 of U937 cells (P53634 395-463): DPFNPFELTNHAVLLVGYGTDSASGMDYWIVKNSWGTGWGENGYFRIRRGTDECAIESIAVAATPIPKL

For `Cn1ncc2ccc(-c3ccc(C[C@@H](C#N)NC(=O)[C@@H]4CNCCCO4)c(F)c3)cc21` [Compound 8], the IC50 [1] was 3.57 nM, the IC50 (DPP1 of U937 cells) was 2.4 nM and the “Bone marrow/plasma distribution coefficient” value ([2]; 5 mg/kg oral, bone marrow AUC0-last/plasma AUC0-last) was 7.0. For the same compound, the “Bone marrow Area under drug-time curve AUC0-last PO” value [2, 3] was 68856 nmol·h/kg, the “Bone marrow Peak concentration Cmax” value [2, 3] was 5014 nmol/kg and the “Plasma Area under drug-time curve AUC0-last PO” value ([2]; plasma, 5 mg/kg single oral administration) was 9.902 µM·h. It also gave a Cmax ([2]; plasma, 5 mg/kg single oral administration, read-out: Plasma Peak concentration Cmax) of 1020 nM.
